Assay results taken from paper PMC3479105, “K-134, a Phosphodiesterase 3 Inhibitor, Prevents Brain Damage by Inhibiting Thrombus Formation in a Rat Cerebral Infarction Model” (PLoS ONE, 2012).
Where two headings read alike, the source gives them in different places.

Columns and labels:
[1] = tested on: mouse platelet aggregation; assay: Mouse platelet aggregation in vitro (PRP, aggregometer); type: cell-based
Procedure: Platelet-rich plasma (PRP) was prepared by centrifugation (900 rpm, 15 min, at room temperature) of blood (05PR-22 centrifuge with a 03 rotor; Hitachi, Ltd., Tokyo, Japan), and the platelet count was adjusted to 5×10^5/µL with platelet-poor plasma prepared by centrifugation (3000 rpm, 10 min, at room temperature). PRP was incubated with antiplatelet agents at 37°C for 3 min and stimulated with collagen (final concentration, 15 µg/mL; MC Medical Inc., Tokyo, Japan) or adenosine diphosphate (ADP) (final concentration, 7.5 µM; MC Medical Inc.) (n = 5). Platelet aggregation was quantified by measuring the area under the curve (AUC) during the 5-min period after addition of trigger using a light transmittance aggregometer (PAM-8C; Mebanix Co., Ltd., Tokyo, Japan).

bleeding time = assay: Tail bleeding time in mice; type: in vivo, mouse; settings: single oral 30 mg/kg, 10 min before test, control 110±5 s, not significant
Procedure: K-134 and warfarin (Sigma Aldrich Co., MO, USA) were suspended and dissolved in 1% HPMC, respectively, and orally administered to ICR mice at 10 min or 24 h before testing of bleeding, respectively. Each mouse was placed in a restrainer, which exposes the tail. A 27G disposable needle (Terumo Co., Tokyo, Japan) was inserted about 6 mm into a tail vein 2 cm from the tip of the tail. Immediately after the operation, sheets of filter paper were placed under the injury site every 15 sec to absorb the blood, and the time point at which no blood was observed on the filter paper was regarded as the bleeding time.

[2] = Plasma concentration of K-134 in mice; type: in vivo, mouse; settings: male ICR mice, 10 min after administration, n = 6; for concentration at 10 min: mouse, plasma
Procedure: We also measured plasma concentration of K-134 at 10 min after a single oral administration of K-134 to male ICR mice (Japan SLC Inc., 5 weeks old).

[3] = design: method as in PMID 22269153; settings: cited from earlier work
[4] = tested on: platelet aggregation ex vivo; assay: Platelet aggregation ex vivo in rats after oral dosing; settings: Rattus norvegicus, 300 mg/kg oral, 3 h after administration
Procedure: Cilostazol was orally administered to rats under non-fasting conditions in a single dose. […] Platelet-rich plasma (PRP) was prepared by centrifugation (450 × g, 8 min, 25°C) of blood. PRP was stimulated with adenosine diphosphate (ADP) (final concentration = 4 µM; MC Medical Inc., Tokyo, Japan) or collagen (final concentration = 5 µg/mL; MC Medical Inc.). Platelet aggregation was quantified by measuring the area under the curve (AUC) during the 5 or 7 min after addition of ADP or collagen, respectively, using a light transmittance aggregometer (Hema Tracer 313M; MC Medical Inc.).

[5] = Pharmacokinetics of cilostazol and its active metabolites in rats; type: in vivo, rat; settings: single oral cilostazol 300 mg/kg, non-fasting male SD rats, n = 3, parent and metabolites
Procedure: Pharmacokinetic variables (Cmax, AUC, Tmax and T1/2) were calculated from the plasma drug concentration-time curve. Cilostazol was orally administered to rats under non-fasting conditions at a single dose of 300 mg/kg to determine the concentration-time profile in serum (n = 3). Values are means (± SEM). […]

[6] = design: method as in PMID 10702882; settings: human healthy male, single dose 100 mg of cilostazol, cited from earlier work

Compound `O=C(NCCCOc1ccc2[nH]c(=O)ccc2c1)N(C1CC1)[C@@H]1CCCC[C@H]1O` [K-134] has an IC50 ([1]; ADP, read-out: IC50, mouse platelet aggregation induced by ADP) of 6.7 µM, an IC50 ([1]; collagen, read-out: IC50, mouse platelet aggregation induced by collagen) of 5.5 µM and a bleeding time (bleeding time) of 106 ± 5 s. The “Plasma concentration of K-134” value ([2]; 30 mg/kg single oral, 30 mg/kg) was 13.6 ± 2.3 µM, the concentration at 10 min ([2]; 1 mg/kg single oral) was 0.4 µM and the concentration at 10 min ([2]; 3 mg/kg single oral) was 1.1 ± 0.2 µM. The concentration at 10 min ([2]; 10 mg/kg single oral) was 4.3 ± 0.6 µM, the concentration at 10 min ([2]; 30 mg/kg single oral) was 13.6 ± 2.3 µM and the “time to plasma peak levels” value ([3]; oral administration, conscious male SD rats under fed conditions) was 1 to 2 h. For the same compound, the “half-life (T1/2)” value ([3]; rats, 10 mg/kg) was “about 2 h”.
With `O=C1CCc2cc(OCCCCc3nnnn3C3CCCCC3)ccc2N1` [cilostazol] the inhibition at 300 mg/kg ([4]; read-out: inhibition of ADP-induced platelet aggregation ex vivo) was 27%, the inhibition at 300 mg/kg ([4]; read-out: inhibition of collagen-induced platelet aggregation ex vivo) was 50% and the Tmax ([5]; male, SD, rat, plasma, po, 300 mg/kg, read-out: Tmax) was over 3 h. For the same compound, the Cmax ([5]; rat, plasma) was 2.4 µM, the half-life ([5]; rat, plasma) was 5.4 h and the AUC(0-t) ([5]; rat, plasma, read-out: AUC0-24h) was 30.1 µM·h. For the same compound, the Tmax [5] was 5.8 h, the Cmax ([6]; converted from µg/L, read-out: Cmax) was 1.69 µM and the “AUC0–72 h” value ([6]; converted from µg/L·h) was 21.89 µM·h. For the same compound, the “AUC0–72 h” value [6] was “about 8087 µg/L·h” and the Cmax [6] was “about 625 µg/L”.
